Measurements taken from EP0279263B1, “Indole, benzofuran, benzothiophene containing lipoxygenase inhibiting compounds” (ABBOTT LABORATORIES, priority 1987, dated 1988).

Target: T1, 5-lipoxygenase (Rattus norvegicus, UniProt P12527)
T1 construct: 20,000xg supernatant from 6x10⁴ homogenized RBL-1 cells; endogenous in cells; host or cells: RBL-1 cells (homogenate, 20,000xg supernatant)
T1 sequence (P12527 1-673): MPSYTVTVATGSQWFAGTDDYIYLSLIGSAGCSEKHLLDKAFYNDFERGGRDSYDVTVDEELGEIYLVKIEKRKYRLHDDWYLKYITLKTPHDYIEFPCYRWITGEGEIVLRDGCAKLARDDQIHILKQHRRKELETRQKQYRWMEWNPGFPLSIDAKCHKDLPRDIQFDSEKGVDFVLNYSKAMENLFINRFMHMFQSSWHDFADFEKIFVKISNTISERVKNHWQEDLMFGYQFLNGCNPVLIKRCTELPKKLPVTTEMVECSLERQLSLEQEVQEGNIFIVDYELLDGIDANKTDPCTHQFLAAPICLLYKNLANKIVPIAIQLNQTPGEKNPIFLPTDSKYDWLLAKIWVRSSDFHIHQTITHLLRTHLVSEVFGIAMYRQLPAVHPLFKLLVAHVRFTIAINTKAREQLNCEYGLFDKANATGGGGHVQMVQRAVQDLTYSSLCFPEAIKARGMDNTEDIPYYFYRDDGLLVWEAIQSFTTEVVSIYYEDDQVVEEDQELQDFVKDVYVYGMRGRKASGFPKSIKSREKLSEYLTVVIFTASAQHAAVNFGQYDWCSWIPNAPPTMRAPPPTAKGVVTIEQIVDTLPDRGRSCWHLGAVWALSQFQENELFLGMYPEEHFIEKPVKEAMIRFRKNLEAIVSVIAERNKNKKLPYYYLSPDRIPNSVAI
Assay: Lipoxygenase IC50 determination (5-lipoxygenase inhibitory activity, RBL-1 cell supernatant)
Assay type: biochemical
Details: 20,000xg supernatant from homogenized RBL-1 cells, radiolabelled arachidonic acid, 2% DMSO vehicle
Method: Reactions were initiated by addition of radiolabelled arachidonic acid and terminated by acidification and ether extraction. Reaction products were separated from nonconverted substrate by thin layer chromatography and measured by liquid scintillation spectroscopy. All treatments were evaluated in triplicate incubations.

Row | SMILES | IC50
1 | CC(c1cc2ccccc2s1)N(O)C(=O)N(C)C (stereo not shown) [Example 4, N-hydroxy-N-(1-benzo[b]thien-2-ylethyl) N'N'-dimethyl urea] | 0.54 µM
2 | CN(C)C(=O)N(O)Cc1cc2ccccc2s1 [Example 7, N-hydroxy-N-benzo[b]thien-2-ylmethyl N',N'-dimethyl urea] | 1.1 µM
3 | CC(=O)N(O)C(C)c1csc2ccccc12 (stereo not shown) [Example 8, N-hydroxy-N-(1-benzo[b]thien-3-ylethyl) acetamide] | 1.4 µM
4 | CC(c1csc2ccccc12)N(O)C(N)=O (stereo not shown) [Example 9, N-hydroxy-N-(1-benzo[b]thien-3-ylethyl) urea] | 1.3 µM
5 | Cc1c(C(C)N(O)C(N)=O)sc2ccccc12 (stereo not shown) [Example 10, N-hydroxy-N-[1-(3-methylbenzo[b]thien-2-yl)ethyl] urea] | 0.54 µM
6 | CC(=O)N(O)C(C)C1=Cc2ccccc2S1(=O)=O (stereo not shown) [Example 12, N-hydroxy-N-[1-benzo[b]thien-2-ylethyl) acetamide 1,1-dioxide] | 21 µM
7 | CC(c1cc2ccccc2o1)N(O)C(N)=O (stereo not shown) [Example 15, N-hydroxy-N-(1-benzo[b]fur-2-ylethyl) urea] | 2.7 µM
8 | CC(=O)N(O)C(C)c1cn(C)c2ccccc12 (stereo not shown) [Example 16, N-hydroxy-N-(1-(1-methylindol-3-yl)ethyl) acetamide] | 2.6 µM
9 | CC(c1cn(C)c2ccccc12)N(O)C(N)=O (stereo not shown) [Example 17, N-hydroxy-N-(1-(1-methylindol-3-yl)ethyl) urea] | 2.8 µM
10 | CNC(=O)N(O)C(C)c1cn(C)c2ccccc12 (stereo not shown) [Example 18, N-hydroxy-N-(1-(1-methylindol-3-yl)ethyl) N'-methyl urea] | 3.7 µM
11 | CC(c1cc2ccccc2s1)N(O)C=O (stereo not shown) [Example 20, N-hydroxy-N-(1-benzo[b]thien-2-ylethyl) formamide] | 3 µM
12 | CC(C)C(=O)N(O)C(C)c1cc2ccccc2s1 (stereo not shown) [Example 21, N-hydroxy-N-(1-benzo[b]thien-2-ylethyl) 2-methylpropionamide] | 0.38 µM
13 | CC(c1cc2ccccc2n1C)N(O)C(N)=O (stereo not shown) [Example 24, N-hydroxy-N-(1-(1-methylindol-2-yl)ethyl) urea] | 1.6 µM
14 | CC(c1cc2ccccc2s1)N(O)C(N)=S (stereo not shown) [Example 25, N-hydroxy-N-(1-benzo[b]thien-2-ylethyl) thiourea] | 0.19 µM
15 | Cc1ccc(C)c2sc(C(C)N(O)C(N)=O)cc12 (stereo not shown) [Example 28, N-hydroxy-N-[1-(4,7-dimethylbenzo[b]thien-2-yl)ethyl] urea] | 0.4 µM
16 | CC(c1cc2cc(F)ccc2s1)N(O)C(N)=O (stereo not shown) [Example 29, N-hydroxy-N-[1-(5-fluorobenzo[b]thien-2-yl)ethyl] urea] | 0.5 µM
17 | CC(Cc1cc2ccccc2s1)N(O)C(N)=O (stereo not shown) [Example 30, N-hydroxy-N-(2-benzo[b]thien-2-yl-1-methylethyl) urea] | 0.46 µM
18 | CC(=O)N(O)CC=Cc1cc2ccccc2s1 [Example 31, N-hydroxy-N-(3-benzo[b]thien-2-ylprop-2-enyl) acetamide] | 0.27 µM
19 | NC(=O)N(O)CC=Cc1cc2ccccc2s1 [Example 32, N-hydroxy-N-(3-benzo[b]thien-2-ylprop-2-enyl) urea] | 0.35 µM

Row | SMILES | IC50
20 | CC(c1cc2cc(Cl)cc(Cl)c2o1)N(O)C(N)=O (stereo not shown) [Example 33, N-hydroxy-N-[1-(5,7-dichlorobenzo[b]fur-2-yl)ethyl] urea] | 0.36 µM
21 | COc1cccc2cc(C(C)N(O)C(N)=O)oc12 (stereo not shown) [Example 34] | 1.9 µM
22 | CCOc1cccc2cc(C(C)N(O)C(N)=O)oc12 (stereo not shown) [Example 36] | 3.5 µM
23 | CC(c1cc2cc(Cl)ccc2[nH]1)N(O)C(N)=O (stereo not shown) [Example 38] | 1 µM
24 | CC(=O)n1c(C(C)N(O)C(N)=O)cc2ccccc21 (stereo not shown) [Example 39, N-hydroxy-N-[1-(1-acetylindol-2-yl)ethyl] urea] | 4 µM
25 | CC(c1cc2ccccc2n1S(C)(=O)=O)N(O)C(N)=O (stereo not shown) [Example 40, N-hydroxy-N-[1-(1-methanesulfonylindol-2-yl)ethyl] urea] | 3 µM
26 | CC(C1Cc2ccccc2O1)N(O)C(N)=O (stereo not shown) [Example 42, N-hydroxy-N-[1-(2,3-dihydrobenzo[b]fur-yl)ethyl] urea] | 8.5 µM
27 | CC(c1cc2ccccc2s1)N(O)C(=O)NO (stereo not shown) [Example 43, N,N'-dihydroxy-N-(1-benzo[b]thien-2-ylethyl) urea] | 0.51 µM
28 | CCNC(=O)N(O)C(C)c1cc2ccccc2s1 (stereo not shown) [Example 44, N-hydroxy-N-(1-benzo[b]thien-2-ylethyl) N'-ethylurea] | 1.8 µM
29 | CNC(=S)N(O)C(C)c1cc2ccccc2s1 (stereo not shown) [Example 45, N-hydroxy-N-(1-benzo[b]thien-2-ylethyl) N'-methyl thiourea] | 0.19 µM
30 | CNC(=O)N(O)Cc1cc2ccccc2s1 [Example 46, N-hydroxy-N-benzo[b]thien-2-ylmethyl N'-methyl urea] | 1.9 µM
31 | CCNC(=O)N(O)Cc1cc2ccccc2s1 [Example 47, N-hydroxy-N-benzo[b]thien-2-ylmethyl-N'-ethyl urea] | 1 µM
32 | CC(C)CC(c1cc2ccccc2s1)N(O)C(N)=O (stereo not shown) [Example 48] | 0.2 µM
33 | NC(=O)N(O)Cc1cc2ccccc2o1 [Example 49, N-hydroxy-N-benzo[b]fur-2-ylmethyl urea] | 8.2 µM
34 | CNC(=O)N(O)Cc1cc2ccccc2o1 [Example 50, N-hydroxy-N-benzo[b]fur-2-ylmethyl N'-methyl urea] | 2.3 µM
35 | CC(c1cc2ccc(OCc3ccccc3)cc2o1)N(O)C(N)=O (stereo not shown) [Example 51, N-hydroxy-N-[1-(6-benzyloxybenzo[b]fur-2-yl)ethyl] urea] | 0.25 µM
36 | CNC(=O)N(O)C(C)c1cc2ccc(OCc3ccccc3)cc2o1 (stereo not shown) [Example 52, N-hydroxy-N-[1-(6-benzyloxybenzo[b]fur-2-yl)ethyl]N'-methyl urea] | 0.2 µM
37 | CC(c1cc2ccccc2[nH]1)N(O)C(N)=O (stereo not shown) [Example 53] | 2.9 µM
